According to patent US20190345202A1, “ANDROGEN RECEPTOR ANTISENSE OLIGONUCLEOTIDES” (OliPass Corporation, priority 2016, published 2019):
[C(1O2)] = PNA monomer with modified cytosine C(1O2), structure; [A(5)] = PNA monomer with modified adenine A(5), structure; {Fethoc} = Fethoc group on PNA N-terminus; {NH2} = C-terminal amide

Experiments:
[1] = test system: 10-mer complementary DNA; assay: Tm of duplex between PNA and 10-mer complementary DNA (UV/Vis); format: binding; details: 4 μM PNA and 4 μM 10-mer DNA, aqueous buffer pH 7.16, 10 mM sodium phosphate, 100 mM NaCl
Description: The PNA derivatives in Table 1 were evaluated for their binding affinity for 10-mer DNAs complementarily targeting either the N-terminal or C-terminal. The binding affinity was assessed by Tm value for the duplex between PNA and 10-mer complementary DNA. The duplex between PNA derivatives in Table 1 and fully complementary DNAs show Tm values too high to be reliably determined in aqueous buffer solution, since the buffer solution tends to boil off during the Tm measurement.
Tm values were determined on an UV/Vis spectrometer as follows. A mixed solution of 4 μM PNA oligomer and 4 μM complementary 10-mer DNA in 4 mL aqueous buffer (pH 7.16, 10 mM sodium phosphate, 100 mM NaCl) in 15 mL polypropylene falcon tube was incubated at 90° C. for a minute and slowly cooled down to ambient temperature over several minutes. Then the solution was transferred into a 3 mL quartz UV cuvette equipped with an air-tight cap, and subjected to a Tm measurement at 260 nm on an Agilent 8453 UV/Visible spectrophotometer or a similar one as described in the prior art [PCT/KR2009/001256] or with minor modifications. The 10-mer complementary DNAs for Tm measurement were purchased from Bioneer (www.bioneer.com, Dajeon, Republic of Korea) and used without further purification.

[2] = test system: C57BL/6 mice; assay: Hair growth in C57BL/6 mice upon topical administration (brightness score, hair weight); format: in vivo, mouse
Description: (§1) [Hair Removal and Grouping] In Day 0, 7 week old female C57BL/6 mice were anesthetized with zoletil/rompun, and the hair in the back was cut and removed with a clipper and wax, respectively. Mice with flawless (i.e. spotless) hair removal were selected and randomly assigned into three groups (7 animals per group).
[Topical Administration] The topical solutions of “ASO 1” were prepared by diluting a mother stock solution of “ASO 1” to 0.2 fM or 1 fM in aqueous 30% (v/v) ethanol supplemented with 3% (v/v) glycerin. About 100 μL of 0 (negative control), 0.2, or 1 fM “ASO 1” was topically administered in the back of each animal using a cotton ball in Days 3, 7, 10, and 14.
[Digital Image Scoring for Hair Growth] For scoring the hair growth, the animals were anesthetized and photographed by group as shown in FIG. 11A using a digital camera at a fixed value of exposure time and illumination. The digital image for the area of the hair removal for each animal was selected and digitally scored for the average brightness over the selected area using “ImageJ” program. Lower brightness score is taken as faster hair growth. Brightness scores of individual animals were combined by group, and subjected to statistical analysis by student's t-test. FIG. 11B summarizes the relative brightness scores of the ASO treated groups against the control group. The relative brightness score tended to decrease with days in the treatment groups. […] Thus, “ASO 1” was concluded to promote hair growth upon topical administrations at 1 fM.
[Scoring by Hair Weight] In Day 21, the animals were anesthetized and the hair in the back was cut with a clipper. The hair samples from individual animals were combined by group, and weighed to evaluate the hair growth between Day 0 and Day 21. The average hair weight was 70.5 mg/animal for the control group, 90.8 mg/animal for the 0.2 fM treatment group, and 94.4 mg/animal for the 1 fM treatment group. Thus “ASO 1” was concluded to promote hair growth upon topical administrations at 0.2 fM as well as 1 fM.
as §1, with “(10” for “(7”
[Topical Administration] The topical solutions of “ASO 5” were prepared by diluting a mother stock solution of “ASO 5” to 1, 5, or 25 fM in aqueous 30% (v/v) ethanol supplemented with 3% (v/v) glycerin. About 100 μL of each ASO solution or vehicle (negative control) was topically administered to in the back of an animal using a cotton ball in Days 3, 7, 10, 14 and 21.
Following the shaving in Day 21, the animals received a single topical administration of either vehicle or “ASO 5” at 1 fM, 5 fM, or 25 fM. In Day 53, the hair in the back was collected by shaving with a clipper to determine the total amount of hair growth between Days 21 and 53. The average hair weights of the 1 fM, 5 fM, and 25 fM groups were 1,630%, 1,450%, and 771% of the non-treated group, respectively. Thus “ASO 5” was concluded to promote hair growth upon topical administrations at 1 to 25 fM.
as §1, with “(9” for “(7”
[Topical Administration] The topical solutions of “ASO 10” were prepared by diluting a mother stock solution of “ASO 10” to 1, 5, or 25 fM in aqueous 30% (v/v) ethanol supplemented with 3% (v/v) glycerin. About 100 μL of each ASO solution or vehicle (negative control) was topically administered to in the back of an animal using a cotton ball in Day 2.

[3] = test system: human AR mRNA; assay: qPCR (SYBR Green) of AR mRNA level in MCF7 cells; details: 5 hours
[4] = test system: full-length AR protein; assay: Western blot of AR protein in MCF7 cells; format: cell-based, human; details: 10 zM to 30 aM
Description: 4 culture dishes were used for 4 negative controls. 48 hours later, cells were washed 2 times with cold PBS, and then subjected to lysis with 200 μL 1× cell lysis buffer (Cat. No. 9803, Cell Signaling Tech) supplemented with 1× protease inhibitor (Cat. No. P8340, Sigma). The lysates were collected in 1.5 ml e-tube. 200 μL of each lysate was mixed with 100 μL 3× sample buffer, and boiled for 5 min at 100 ? . 20 μL of each lysate (12 lysates in total). 4 negative controls and 8 ASO treatment samples) was subjected to electrophoretic separation on a 8% SDS-PAGE gel, and transferred onto a 0.2 μm PVDF membrane. The membrane was probed with anti-AR antibody (Cat. No. 5153, Cell Signaling Tech) and anti-β-actin antibody (Cat. No. sc4778, Santa Cruz). FIG. 10A provides the AR Western blot data obtained therefrom. Multiple (negative) control samples were used to overcome technical artifacts of western blot procedures.

In the case of “Fethoc-C(1O2)TT-A(5)CC-A(5)GG(6)-CA(5)A-NH2 (antisense CTTACCAGGCAA; N-Fethoc, C-terminal amide, chemistry not fully specified) [ASO 10]”, the “Tm Value, 10-mer DNA against C-Terminal” value [1] is reported as 78.4 °C, the “Tm Value, 10-mer DNA against N-Terminal” value [1] is reported as 84.4 °C and the average hair weight ([2]; 1 fM topical in Day 2, hair growth between Day 0 and Day 27) is reported as 115 % of the non-treated group. For the same substance, the average hair weight ([2]; 5 fM topical in Day 2, hair growth between Day 0 and Day 27) was 114 % of the non-treated group, the average hair weight ([2]; 25 fM topical in Day 2, hair growth between Day 0 and Day 27) was 119 % of the non-treated group and the “brightness score vs non-treatment group” value ([2]; Day 27, 1 fM and 5 fM groups, topical in Day 2) was “significantly lower”. For the same substance, the “decrease of relative expression level of exons 4-6” value ([3]; 1 zM to 1,000 zM) was 60-80%.
For “Fethoc-C(1O2)TT-A(5)CC-A(5)GG-C(1O2)AA(5)-G-NH2 (antisense CTTACCAGGCAAG; all peptide nucleic acid (PNA), [C(1O2)] at 1, 10, [A(5)] at 4, 7, 12, 5' {Fethoc}, 3' {NH2}; peptide nucleic acid, written N to C terminus) [ASO 5]”, the “Tm Value, 10-mer DNA against C-Terminal” value [1] was 81.3 °C, the “Tm Value, 10-mer DNA against N-Terminal” value [1] was 86.1 °C and the “AR band intensity vs neighboring lysates without ASO treatment” value [4] was “considerably weaker”. The average hair weight ([2]; 1 fM topical, hair growth between Day 0 and Day 21) was 293 % of the negative control group, the average hair weight ([2]; 1 fM, single topical administration after shaving in Day 21, hair growth between Days 21 and 53) was 1,630 % of the non-treated group and the average hair weight ([2]; 5 fM topical, hair growth between Day 0 and Day 21) was 306 % of the negative control group. For the same substance, the average hair weight ([2]; 5 fM, single topical administration after shaving in Day 21, hair growth between Days 21 and 53) was 1,450 % of the non-treated group, the average hair weight ([2]; 25 fM topical, hair growth between Day 0 and Day 21) was 278 % of the negative control group and the average hair weight ([2]; 25 fM, single topical administration after shaving in Day 21, hair growth between Days 21 and 53) was 771 % of the non-treated group. For the same substance, the “brightness score vs non-treated group” value ([2]; Day 17, 1 fM and 25 fM groups, topical in Days 3, 7, 10, 14 and 21) was “significantly lower”, the “exon message levels (exons 4-6) relative to negative control” value ([3]; 1 aM) was “rebounded to near the levels of the negative control” and the “decrease of exon message levels (exons 4-6)” value ([3]; 100 zM) was 50 to 60%.
